Data reported in patent US8815304B2, “Compositions and methods for promoting appetite suppression using alkali metals” (Ashberry International Limited, priority 2010, dated 2014).

Columns and labels:
Assay type in all cases: in vivo, human
[1] = Weight loss trials in one subject (first to fifth and further trials, Examples 4-9); settings: for weight lost during the trial: two months (61 days)
Text: The therapeutic efficacy of a composition in accordance with the present invention has been tested herein.
These trials were not undertaken to lose weight as quickly as possible but rather they were undertaken with the recommendation by doctors to the subject(s) not to lose weight too quickly and to eat potassium rich foods, especially at night, instead of junk food.
As such, the aim of these trials was to have the subjects lose weight and stop the cravings for junk food with the aid of the compositions of this invention and use the enhanced energy and stimulation supplied from the compositions to change eating habits away from junk food thereby facilitating weight loss.
During a first trial, a subject was administered 300 mg of cesium chloride once per day in a glass of water every morning. The first trial lasted two months (61 days) and the subject (100 kg) lost ten kilograms during this time period, as follows:
In a second trial, the subject was administered 120 mg of lithium carbonate once per day with a glass of water every morning for two months (59 days). The subject reported after two weeks the stress of trying to diminish junk food intake was reduced.
In a third trial, the subject was administered 40 mg of lithium carbonate with a glass of water every morning for two months. The subject reported that the most difficult aspect was to stop the craving for junk food in the evening and the late afternoon.
In a fourth trial, the subject was administered 300 mg of rubidium chloride once per once day in a glass of water in the morning. This trial lasted two months (61 days), and the subject lost ten kilograms during this time period. The most difficult aspect reported was the urge to eat junk food for dinner and the cravings in the evening, which contributed to poor weight loss at the beginning of the trial (an option for people who cannot stop eating junk food at night would be to split the dosage and take half in the morning and half late in the afternoon or increase the dosage to 200 mg in the morning and 200 mg in the late afternoon).
In a fifth trial, the subject was administered 150 mg of rubidium chloride, 150 mg cesium chloride, and 40 mg of lithium carbonate once per day together in a glass of water in the morning. This trial lasted two months (61 days) and the subject lost ten kilograms during this time period. The most difficult aspect reported by the subject was the craving for junk food for dinner or late in the afternoon. This contributed to the little weight loss early in the study.
In further trials, the subject was administered lithium salts—lithium orotate, lithium aspartate, and lithium citrate (40 mg) with a glass of water in the morning. The subject reported similar cravings as noted above.

[2] = Blind trial with two subjects (rubidium chloride vs powdered sugar placebo), Example 10; settings: rubidium chloride 300 mg once per day
Description: In a blind trial with two subjects, a subject (66 kg) was administered 300 mg of rubidium chloride once per day in a glass of water in the morning for two months (61 days). The second subject was a person (98 kg) who was administered a placebo of powdered sugar once per day in a glass of water in the morning during the same two months.
The most difficult aspect reported by the subject was to stop eating junk food for dinner and to stop the craving for junk food in the evening, which is believed to be the reason for little weight loss at the beginning of the trial (a proposed solution for people who cannot stop eating at night would be to split the dosage of the 300 mg of rubidium chloride and take half in the morning and half late in the afternoon).
The aim of this trial was to have the subject lose weight and stop the craving for junk food with the aid of the composition. The enhanced energy and stimulation supplied from the composition that was tested to determine if it prompted a change in eating habits away from junk food, thereby facilitated weight loss. Both subjects stated there was a higher craving for junk food for them in the afternoon and evening.
The trial lasted two months and the subject lost no weight and found the powdered sugar caused no stimulation, while the subject lost 6.5 kilograms during this time period, as follows: […]

[3] = Example 1: alkali metal composition in water taken daily by a 100 kg person for two months; settings: 300 mg in water, each over another two-month period
Description: A 100 kg person was administered a pharmaceutical composition of the invention. Cesium chloride ([…]), rubidium chloride ([…]) and lithium aspartate (40 milligrams) together were dissolved in one glass of water and ingested in the morning daily over a two month period.

[4] = further trials, lithium salt 40 mg in the morning
[5] = further trials, lithium salt 40 mg in the morning, after two weeks
[6] = further trials, lithium salt 40 mg with a glass of water in the morning

N[C@@H](CC(=O)[O-])C(=O)[O-].[Li+].[Li+] [lithium aspartate]
feeling of stimulation (subject report) [1, 4]: not the feeling of stimulation as in the first and fourth trials | stress of trying to diminish junk food intake (subject report) [1, 5]: decreased | weight loss (in words) [1, 6]: Weight loss was recorded

[Cl-].[Rb+] [rubidium chloride]
Weight ([1]; fourth trial, rubidium chloride 300 mg once per day, day 1-10): 102 kg | Weight ([1]; fourth trial, rubidium chloride 300 mg once per day, day 11-15): 101 kg | Weight ([1]; fourth trial, rubidium chloride 300 mg once per day, day 16-23): 100 kg | Weight ([1]; fourth trial, rubidium chloride 300 mg once per day, day 24-29): 99 kg | Weight ([1]; fourth trial, rubidium chloride 300 mg once per day, day 30-35): 98 kg | Weight ([1]; fourth trial, rubidium chloride 300 mg once per day, day 36-40): 97 kg | Weight ([1]; fourth trial, rubidium chloride 300 mg once per day, day 41-45): 96 kg | Weight ([1]; fourth trial, rubidium chloride 300 mg once per day, day 46-50): 95 kg | Weight ([1]; fourth trial, rubidium chloride 300 mg once per day, day 51-54): 94 kg | Weight ([1]; fourth trial, rubidium chloride 300 mg once per day, day 55-59): 93 kg | Weight ([1]; fourth trial, rubidium chloride 300 mg once per day, day 60-61): 92 kg | weight lost during the trial ([1]; fourth trial, rubidium chloride 300 mg once per day): ten | weight lost during the trial ([2]; subject (66 kg), two months (61 days)): 6.5 kilograms | craving for junk food (subject report) ([2]; subject): less craving for junk food than normal even after the first day | energy and activity during the day (subject report) ([2]; subject): much more energy than before | stimulation from the medication (subject report) ([2]; subject): very, very strong | Weight ([2]; subject, day 1-5): 66 kg | Weight ([2]; subject, day 6-9): 65.5 kg | Weight ([2]; subject, day 10-12): 65 kg | Weight ([2]; subject, day 13-18): 64 kg | Weight ([2]; subject, day 19-28): 63 kg | Weight ([2]; subject, day 29-30): 64 kg | Weight ([2]; subject, day 31-32): 63.5 kg | Weight ([2]; subject, day 33-34): 63 kg | Weight ([2]; subject, day 35-43): 62 kg | Weight ([2]; subject, day 44-51): 61 kg | Weight ([2]; subject, day 52-55): 60.5 kg | Weight ([2]; subject, day 56-59): 60 kg | Weight ([2]; subject, day 60-61): 59.5 kg | effect of the individual alkali metals ingested separately, compared with the combination [3]: worked as well and with the same sensation

O=C([O-])[O-].[Li+].[Li+] [lithium carbonate]
stress of trying to diminish junk food intake (subject report) ([1]; second trial, lithium carbonate 120 mg once per day, after two weeks): reduced | Weight ([1]; second trial, lithium carbonate 120 mg once per day, day 1-14): 100 kg | Weight ([1]; second trial, lithium carbonate 120 mg once per day, day 15-19): 99 kg | Weight ([1]; second trial, lithium carbonate 120 mg once per day, day 20-27): 98 kg | Weight ([1]; second trial, lithium carbonate 120 mg once per day, day 28-35): 97 kg | Weight ([1]; second trial, lithium carbonate 120 mg once per day, day 36-39): 96 kg | Weight ([1]; second trial, lithium carbonate 120 mg once per day, day 40-46): 95 kg | Weight ([1]; second trial, lithium carbonate 120 mg once per day, day 47-52): 94 kg | Weight ([1]; second trial, lithium carbonate 120 mg once per day, day 53-57): 93 kg | Weight ([1]; second trial, lithium carbonate 120 mg once per day, day 58-59): 92 kg | weight loss (in words) ([1]; second trial, lithium carbonate 120 mg once per day, two months (59 days)): Weight loss resulted | feeling of stimulation (subject report) ([1]; third trial, lithium carbonate 40 mg every morning): not the feeling of stimulation as in the first trial | stress of trying to reduce junk food intake (subject report) ([1]; third trial, lithium carbonate 40 mg every morning, after two weeks): reduced | Weight ([1]; third trial, lithium carbonate 40 mg every morning, day 1-15): 100 kg | Weight ([1]; third trial, lithium carbonate 40 mg every morning, day 16-25): 99 kg | Weight ([1]; third trial, lithium carbonate 40 mg every morning, day 26-34): 98 kg | Weight ([1]; third trial, lithium carbonate 40 mg every morning, day 35-41): 97 kg | Weight ([1]; third trial, lithium carbonate 40 mg every morning, day 42-48): 96 kg | Weight ([1]; third trial, lithium carbonate 40 mg every morning, day 49-53): 95 kg | Weight ([1]; third trial, lithium carbonate 40 mg every morning, day 54-57): 94 kg | Weight ([1]; third trial, lithium carbonate 40 mg every morning, day 58-60): 93 kg | Weight ([1]; third trial, lithium carbonate 40 mg every morning, day 61): 92 kg | weight loss (in words) ([1]; third trial, lithium carbonate 40 mg every morning, two months): Weight loss also resulted

[Cl-].[Cs+] [cesium chloride]
Weight ([1]; first trial, cesium chloride 300 mg once per day, day 1-9): 100 kg | Weight ([1]; first trial, cesium chloride 300 mg once per day, day 10-13): 99 kg | Weight ([1]; first trial, cesium chloride 300 mg once per day, day 14-15): 98 kg | Weight ([1]; first trial, cesium chloride 300 mg once per day, day 16-23): 97 kg | Weight ([1]; first trial, cesium chloride 300 mg once per day, day 24-34): 96 kg | Weight ([1]; first trial, cesium chloride 300 mg once per day, day 35-41): 95 kg | Weight ([1]; first trial, cesium chloride 300 mg once per day, day 42-47): 94 kg | Weight ([1]; first trial, cesium chloride 300 mg once per day, day 48-52): 93 kg | Weight ([1]; first trial, cesium chloride 300 mg once per day, day 53-55): 92 kg | Weight ([1]; first trial, cesium chloride 300 mg once per day, day 56-58): 91 kg | Weight ([1]; first trial, cesium chloride 300 mg once per day, day 59-61): 90 kg | weight lost during the trial ([1]; first trial, cesium chloride 300 mg once per day, subject 100 kg): ten | effect of the individual alkali metals ingested separately, compared with the combination [3]: worked as well and with the same sensation

O=C([O-])CC(O)(CC(=O)[O-])C(=O)[O-].[Li+].[Li+].[Li+] [lithium citrate]
feeling of stimulation (subject report) [1, 4]: not the feeling of stimulation as in the first and fourth trials | stress of trying to diminish junk food intake (subject report) [1, 5]: decreased | weight loss (in words) [1, 6]: Weight loss was recorded

O=C([O-])c1cc(=O)[nH]c(=O)[nH]1.[Li+] [lithium orotate]
feeling of stimulation (subject report) [1, 4]: not the feeling of stimulation as in the first and fourth trials | stress of trying to diminish junk food intake (subject report) [1, 5]: decreased | weight loss (in words) [1, 6]: Weight loss was recorded
